“Also recorded” adds a separate entry of the source. Where two headings read alike, the source gives them in different places. Each block holds one compound with its values, some of them ahead of it.
Assays:
Assay type in all cases: physicochemical
[1] = Dynamic vapor sorption (DVS); conditions: for Form of post-DVS sample by XRPD: after DVS at 25° C.
Method: Approximately 10 mg of sample was placed into a mesh vapor sorption balance pan and loaded into a DVS-1, DVS Intrinsic or DVS Advantage dynamic vapor sorption balance by Surface Measurement Systems. The sample was subjected to a ramping profile from 40-90% relative humidity (RH) at 10% increments, maintaining the sample at each step until a stable weight had been achieved (dm/dt 0.004%, minimum step length 30 min, maximum step length 500 min) at 25° C. After completion of the sorption cycle, the sample was dried using the same procedure to 0% RH and then a second sorption cycle back to 90% RH. Two cycles were performed. The weight change during the sorption/desorption cycles were plotted, allowing for the hygroscopic nature of the sample to be determined. XRPD analysis was then carried out on any solid retained.
Form I and II were analyzed by dynamic vapor sorption (DVS) at 25° C. (FIG. 16 and FIG. 17).

[2] = Competitive slurry of crystalline forms in a 1:2 mixture of EtOH(anhydrous):EtOAc; conditions: 1:2 EtOH (anhydrous):EtOAc
Method: A flask was charged with crystalline Form A (1.5 g) and crystalline Form I (1.5 g) with 30 mL of a 1:2 mixture of ethanol (anhydrous) and ethyl acetate. The resulting mixture was allowed to stir at room temperature for 5 hours resulting in a thick white slurry. An additional 6 mL of the 1:2 EtOH (anhydrous):EtOAc mixture was added. The suspension was allowed to stir for 5 days. A small sample of the suspension was pulled from the mixture after 22 hr, 46 hr and 118 hr. The samples were filtered, and dried in an oven at room temperature for 2-3 hr and characterized by XRPD.
A 20 mL vial was charged with 0.2 g of Form V and 0.2 g of Form I with 4 mL of a 1:2 EtOH (anhydrous):EtOAc mixture. The resulting suspension was stirred vigorously for 3 days. The suspension was filtered, and the solid was dried under reduced pressure at RT for 3 hr.
A 15 mL round bottom flask was equipped with a stir bar, thermometer and N2 inlet, and was charged with 0.25 g Form I and 0.25 g Form V. To the flask was added 6 mL of a 1:2 EtOH (anhydrous):EtOAc mixture was added to the flask resulting in a white suspension. The suspension was heated to 35° C. and stirred vigorously for 2 days. The suspension was filtered, and the resulting solid dried under reduced pressure at RT for 3 hr.
A 20 mL vial was charged with 0.2 g Form I and 0.2 g Form II. […]

[3] = Competitive slurry conversion testing of Forms I, II and V in EtOH/EtOAc at 20° C.
Method: The relative form stability between Forms I, II and V was investigated by aging mixtures of the mixed forms in EtOH, EtOAc, and mixtures thereof. The Form V starting material contained some Form II as determined by its XRPD pattern.
In two 4 mL vials, enough Form I and Form V (containing some Form II) were mixed with 1 mL of the appropriate solvent to generate a slurry in each vial. The two slurries were combined and shaken at 600 rpm at 20° C. The solids from the slurries were isolated for XRPD characterization at time 0, 1 day and 2 days (FIG. 12A-D).

[4] = Equilibrium solubility of Form I and Form II + V in EtOH/EtOAc, with XRPD of the end solids; conditions: for Solubility (wt %) / solubility: overnight; for End Form by XRPD: slurry 20° C. overnight
Method: Equilibrium solubilities of Form I and Form V were measured in EtOH/EtOAc at different ratios at 20° C. The Form V starting material contains some Form II as determined by XRPD.
In a 4 mL vial, 50 mg of the appropriate solid was mixed with 1 mL of each solvent. The resulting slurry was shaken at 600 rpm at 20° C. overnight. The supernatant from each vial was sampled for HPLC for equilibrium solubility, and the solids isolated and characterized by XRPD.

[5] = Equilibrium solubility of Forms I, II and V in EtOH/Heptane; conditions: EtOH/HPT, all solvent ratios, 20 and 35° C.
Method: Equilibrium solubilities of Forms I, II and V were measured in EtOH/Heptane (HPT) solutions of different ratios at 20 and 35° C.
In 4 mL test vial, the appropriate solids (Form I or Form II containing Form V) were mixed with ˜1 mL of each solvent to generate slurry. The resulting slurry was shaken at 600 rpm at 20 and 35° C. overnight. After overnight aging, supernatant from each vial was sampled for HPLC for equilibrium solubility, solids were isolated to check by XRPD.

[6] = Form V / Form II interconversion on storage, drying and reslurry
Method: Increasing the temperature to 40° C. and drying Form V under vacuum increased the conversion rate to Form II (full conversion observed after 48 hr).

[7] = ≤20 v % EtOH system, aging for two days
[8] = 100 V % EtOH in EtOH/EtOAc, 20° C.

Form of post-DVS sample by XRPD [1]: conversion to Form VI | Form conversion in competitive slurry ([3]; solvents with ≥80 v % EtOH): converted to Form II | Form conversion in competitive slurry [3, 7]: remained | Solubility (wt %) ([4]; 0 V % EtOH in EtOH/EtOAc, 20° C.): 0.0% wt % | End Form by XRPD ([4]; 0 V % EtOH in EtOH/EtOAc): Form I | Solubility (wt %) ([4]; 20 V % EtOH in EtOH/EtOAc, 20° C.): 0.1% wt % | End Form by XRPD ([4]; 20 V % EtOH in EtOH/EtOAc): Form I | Solubility (wt %) ([4]; 33 V % EtOH in EtOH/EtOAc, 20° C.): 1.0% wt % | End Form by XRPD ([4]; 33 V % EtOH in EtOH/EtOAc): Form I | Solubility (wt %) ([4]; 50 V % EtOH in EtOH/EtOAc, 20° C.): 1.7% wt % | End Form by XRPD ([4]; 50 V % EtOH in EtOH/EtOAc): Form I | Solubility (wt %) ([4]; 67 V % EtOH in EtOH/EtOAc, 20° C.): 3.0% wt % | End Form by XRPD ([4]; 67 V % EtOH in EtOH/EtOAc): Form I | Solubility (wt %) ([4]; 80 V % EtOH in EtOH/EtOAc, 20° C.): 4.2% wt % | End Form by XRPD ([4]; 80 V % EtOH in EtOH/EtOAc): Form I | Solubility (wt %) [4, 8]: 6.4% wt % | solubility [4, 8]: 46.54 mg/mL | End Form by XRPD ([4]; 100 V % EtOH in EtOH/EtOAc): Form I | Relative form stability ([4]; EtOAc rich solvent system except for too high EtOAc (with too low solubility)): more stable than Forms II and V | solubility ([4]; EtOH/EtOAc solvent mixture, 20 °C, organic solvent or mixture, thermodynamic from solid, 20 V % EtOH in EtOH/EtOAc, 20° C., read-out: Solubility): 1.01 mg/mL | solubility ([4]; EtOH/EtOAc solvent mixture, 20 °C, organic solvent or mixture, thermodynamic from solid, 33 V % EtOH in EtOH/EtOAc, 20° C., read-out: Solubility): 8.93 mg/mL | solubility ([4]; EtOH/EtOAc solvent mixture, 20 °C, organic solvent or mixture, thermodynamic from solid, 50 V % EtOH in EtOH/EtOAc, 20° C., read-out: Solubility): 13.7 mg/mL | solubility ([4]; EtOH/EtOAc solvent mixture, 20 °C, organic solvent or mixture, thermodynamic from solid, 67 V % EtOH in EtOH/EtOAc, 20° C., read-out: Solubility): 23.7 mg/mL | solubility ([4]; EtOH/EtOAc solvent mixture, 20 °C, organic solvent or mixture, thermodynamic from solid, 80 V % EtOH in EtOH/EtOAc, 20° C., read-out: Solubility): 32.8 mg/mL | solubility ([4]; EtOH/EtOAc solvent mixture, 20 °C, organic solvent or mixture, thermodynamic from solid, 100 V % EtOH in EtOH/EtOAc, 20° C., read-out: Solubility): ~46 mg/mL | Crystal form change in solubility vials ([4]; EtOH/EtOAc, all ratios, 20° C.): No crystal form change
SMILES: C[C@H](Nc1cc(Cl)nc2c1cnn2[C@@H]1O[C@H](COP(=O)(O)CP(=O)(O)O)[C@@H](O)[C@H]1O)c1ccccc1F [Form I, (((((2R,3S,4R,5R)-5-(6-chloro-4-(((S)-1-(2-fluorophenyl)ethyl)amino)-1H-pyrazolo[3,4-b]pyridin-1-yl)-3,4-dihydroxytetrahydrofuran-2-yl)methoxy)(hydroxy)phosphoryl)methyl)phosphonic acid]
Relative form stability ([2]; 35° C., 2 days): more stable than Form V; also recorded: more stable than Form II | Relative form stability ([2]; RT): more stable than Form A; also recorded: more stable than Form V; also recorded: more stable than Form II | Solubility compared between forms [5]: higher than the solubility of Form II/V mixtures

Form recovered after resuspending ([6]; 1:1 EtOH:EtOAc mixture overnight with stirring): recovery of Form V | Form of post-DVS sample by XRPD [1]: conversion to Form VI | Water uptake compared with Form I ([1]; from 40% to 70% relative humidity (RH), 25° C.): much less water uptake | Relative form stability ([4]; EtOH rich or EtOAc lean solvent systems): more stable than Forms I and V
SMILES: C[C@H](Nc1cc(Cl)nc2c1cnn2[C@@H]1O[C@H](COP(=O)(O)CP(=O)(O)O)[C@@H](O)[C@H]1O)c1ccccc1F [Form II, (((((2R,3S,4R,5R)-5-(6-chloro-4-(((S)-1-(2-fluorophenyl)ethyl)amino)-1H-pyrazolo[3,4-b]pyridin-1-yl)-3,4-dihydroxytetrahydrofuran-2-yl)methoxy)(hydroxy)phosphoryl)methyl)phosphonic acid]

Time for full conversion to Form II ([6]; 40° C., drying under vacuum): 48 h | Time for full conversion to Form II ([6]; stored at ambient temperature under an N2 blanket): > 48 h | Form conversion in competitive slurry ([3]; 50~33 v % EtOH solvents): converted to Form I | Form conversion in competitive slurry ([3]; solvents with ≥80 v % EtOH): converted to Form II | Form conversion in competitive slurry [3, 7]: remained
SMILES: C[C@H](Nc1cc(Cl)nc2c1cnn2[C@@H]1O[C@H](COP(=O)(O)CP(=O)(O)O)[C@@H](O)[C@H]1O)c1ccccc1F [Form V, (((((2R,3S,4R,5R)-5-(6-chloro-4-(((S)-1-(2-fluorophenyl)ethyl)amino)-1H-pyrazolo[3,4-b]pyridin-1-yl)-3,4-dihydroxytetrahydrofuran-2-yl)methoxy)(hydroxy)phosphoryl)methyl)phosphonic acid]
